≈ marks a conversion by molar mass, not a printed value.
Key:
Format in all cases: physicochemical
[1] = aqueous solubility of voriconazole; conditions: aqueous solution, pH 3, aqueous buffer
[2] = log D of voriconazole
[3] = stability in water; conditions: inactive enantiomer formed from recombination of retro-aldol products of hydrolysis

- solubility [1]: 200 µg/mL (≈ 573 µM)
- logD [2]: 1.8
- stability in water [3]: not stable in water
Structure (SMILES): C[C@@H](c1ncncc1F)[C@](O)(Cn1cncn1)c1ccc(F)cc1F [Voriconazole]
